For 27 molecules, EC50 results are on record in patent US11912686B2 (Gilead Sciences, Inc., priority 2020, dated 2024).

What is called EC50 is the midpoint of the concentration-response curve.

human LPAR1, sequence (Q92633 whole entry): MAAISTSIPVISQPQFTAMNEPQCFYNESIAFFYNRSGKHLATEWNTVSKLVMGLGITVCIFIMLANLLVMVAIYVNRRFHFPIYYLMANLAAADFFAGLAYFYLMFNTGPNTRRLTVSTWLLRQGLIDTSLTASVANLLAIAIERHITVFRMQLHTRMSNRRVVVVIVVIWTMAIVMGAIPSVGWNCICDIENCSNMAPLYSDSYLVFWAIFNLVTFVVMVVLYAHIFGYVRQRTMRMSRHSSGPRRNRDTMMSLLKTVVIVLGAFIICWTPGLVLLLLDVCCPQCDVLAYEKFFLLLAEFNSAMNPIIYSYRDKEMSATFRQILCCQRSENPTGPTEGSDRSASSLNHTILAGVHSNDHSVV

The assay has as its target human LPAR1 (Homo sapiens (Human), UniProt Q92633). Put plainly: LPAR1 intracellular calcium mobilization assay (antagonist mode, FLIPR). The format is cell-based. As to conditions: CHO-K1 EDG2 cells expressing human LPAR1, LPA 18:2 at EC80 (100 nM), test compound 0.5 nM to 10 μM.
`Cc1ncc(F)cc1[C@@H](C)OC(=O)Nc1c(-c2ccc(NC(=O)[C@@H]3C[C@H]3F)cn2)nnn1C` [Compound 176, (R)-1-(5-fluoro-2-methylpyridin-3-yl)ethyl (4-(5-((1S,2R)-2-fluorocyclopropane-1-carboxamido)pyridin-2-yl)-1-methyl-1H-1,2,3-triazol-5-yl)carbamate]: the EC50 was 253 nM.

As for `C[C@@H](OC(=O)Nc1c(-c2ccc(NC(=O)[C@H]3[C@@H]4CC(F)(F)C[C@@H]43)cn2)nnn1C)c1cc(F)cnc1F` (racemic) [Compound 230, (R)-1-(2,5-difluoropyridin-3-yl)ethyl (4-(5-((1RS,5SR,6SR)-3,3-difluorobicyclo[3.1.0]hexane-6-carboxamido)pyridin-2-yl)-1-methyl-1H-1,2,3-triazol-5-yl)carbamate], the half-maximal effective concentration (EC50) was 26.7 nM. For `C[C@@H](OC(=O)Nc1c(-c2ccc(NC(=O)[C@H]3C[C@@]4(CC4(F)F)C3)cn2)nnn1C)c1cccnc1Cl` [Compound 85, (R)-1-(2-chloropyridin-3-yl)ethyl (4-(5-((3R,5r)-1,1-difluorospiro[2.3]hexane-5-carboxamido)pyridin-2-yl)-1-methyl-1H-1,2,3-triazol-5-yl)carbamate], the EC50 is 11.2 nM. The same measure for `C[C@@H](OC(=O)Nc1c(-c2ccc(NC(=O)[C@H]3C[C@@H]3F)cn2)nnn1C)c1cccnc1Cl` [Compound 52, (R)-1-(2-chloropyridin-3-yl)ethyl (4-(5-((1R,2S)-2-fluorocyclopropane-1-carboxamido)pyridin-2-yl)-1-methyl-1H-1,2,3-triazol-5-yl)carbamate]: 622 nM; for `CO[C@@H]1C[C@H]1C(=O)Nc1ccc(-c2nnn(C)c2NC(=O)O[C@H](C)c2cc(F)cnc2F)nc1` (mixture of isomers) [Compound 210, (R)-1-(2,5-difluoropyridin-3-yl)ethyl (4-(5-((1RS,2RS)-2-methoxycyclopropane-1-carboxamido)pyridin-2-yl)-1-methyl-1H-1,2,3-triazol-5-yl)carbamate]: 243 nM; for `C[C@@H](OC(=O)Nc1c(-c2ccc(NC(=O)c3cnc(C#N)nc3)cn2)nnn1C)c1cc(F)cnc1F` [Compound 235, (R)-1-(2,5-difluoropyridin-3-yl)ethyl (4-(5-(2-cyanopyrimidine-5-carboxamido)pyridin-2-yl)-1-methyl-1H-1,2,3-triazol-5-yl)carbamate]: 26.5 nM. Under `C[C@@H](OC(=O)Nc1c(-c2ccc(NC(=O)c3cnc4cnn(C)c4c3)cn2)nnn1C)c1cc(F)cnc1F` [Compound 278, (R)-1-(2,5-difluoropyridin-3-yl)ethyl (1-methyl-4-(5-(1-methyl-1H-pyrazolo[4,3-b]pyridine-6-carboxamido)pyridin-2-yl)-1H-1,2,3-triazol-5-yl)carbamate] stands 810 nM; under `CC(=O)Nc1cnc(-c2nnn(C)c2NC(=O)O[C@H](C)c2cccnc2Cl)cc1F` [Compound 10, (R)-1-(2-chloropyridin-3-yl)ethyl (4-(5-acetamido-4-fluoropyridin-2-yl)-1-methyl-1H-1,2,3-triazol-5-yl)carbamate], 1020 nM. As to `C[C@@H](OC(=O)Nc1c(-c2ccc(NC(=O)C3(C(F)(F)F)CCC3)cn2)nnn1C)c1cccnc1Cl` [Compound 48, (R)-1-(2-chloropyridin-3-yl)ethyl (1-methyl-4-(5-(1-(trifluoromethyl)cyclobutane-1-carboxamido)pyridin-2-yl)-1H-1,2,3-triazol-5-yl)carbamate], the concentration for a half-maximal effect (EC50) came out at 22.8 nM.

For the molecule `C[C@@H](OC(=O)Nc1c(-c2ccc(NC(=O)C(F)F)cn2)nnn1C)c1cccnc1Cl` [Compound 36, (R)-1-(2-chloropyridin-3-yl)ethyl (4-(5-(2,2-difluoroacetamido)pyridin-2-yl)-1-methyl-1H-1,2,3-triazol-5-yl)carbamate], the EC50 is 112 nM. The same measure for `C[C@@H](OC(=O)Nc1c(-c2ccc(NC(=O)[C@H]3[C@@H]4CN(CC(F)(F)F)C[C@@H]43)cn2)nnn1C)c1cccnc1Cl` [Compound 308, (R)-1-(2-chloropyridin-3-yl)ethyl (1-methyl-4-(5-((1R,5S,6r)-3-(2,2,2-trifluoroethyl)-3-azabicyclo[3.1.0]hexane-6-carboxamido)pyridin-2-yl)-1H-1,2,3-triazol-5-yl)carbamate]: 337 nM; for `C[C@@H](OC(=O)Nc1c(-c2ccc(NC(=O)c3cccnc3)cn2)nnn1C)c1cccnc1Cl` [Compound 58, (R)-1-(2-chloropyridin-3-yl)ethyl (1-methyl-4-(5-(nicotinamido)pyridin-2-yl)-1H-1,2,3-triazol-5-yl)carbamate]: 205 nM; for `C[C@@H](OC(=O)Nc1c(-c2ccc(NC(=O)[C@@H]3C[C@H]3C#N)cn2)nnn1C)c1cc(F)cnc1Cl` (mixture of isomers) [Compound 285, (R)-1-(2-chloro-5-fluoropyridin-3-yl)ethyl (4-(5-((1RS,2RS)-2-cyanocyclopropane-1-carboxamido)pyridin-2-yl)-1-methyl-1H-1,2,3-triazol-5-yl)carbamate]: 71.8 nM. On to `C[C@@H](OC(=O)Nc1c(-c2ccc(NC(=O)c3cnc(F)cc3F)cn2)nnn1C)c1cc(F)cnc1F` [Compound 255, (R)-1-(2,5-difluoropyridin-3-yl)ethyl (4-(5-(4,6-difluoronicotinamido)pyridin-2-yl)-1-methyl-1H-1,2,3-triazol-5-yl)carbamate], for which the EC50 stood at 346 nM. The same measure for `C[C@@H](OC(=O)Nc1c(-c2cnc(NC(=O)c3ccnc(F)c3F)cn2)nnn1C)c1cc(F)cnc1F` [Compound 323, (R)-1-(2,5-difluoropyridin-3-yl)ethyl (4-(5-(2,3-difluoroisonicotinamido)pyrazin-2-yl)-1-methyl-1H-1,2,3-triazol-5-yl)carbamate]: 178 nM; for `Cc1nccc(C(=O)Nc2ccc(-c3nnn(C)c3NC(=O)O[C@H](C)c3cc(F)cnc3F)nc2)n1` [Compound 249, (R)-1-(2,5-difluoropyridin-3-yl)ethyl (1-methyl-4-(5-(2-methylpyrimidine-4-carboxamido)pyridin-2-yl)-1H-1,2,3-triazol-5-yl)carbamate]: 537 nM; for `C[C@@H](OC(=O)Nc1c(-c2ccc(NC(=O)C3(C#N)CC3)cn2)nnn1C)c1cccnc1F` [Compound 172, (R)-1-(2-fluoropyridin-3-yl)ethyl (4-(5-(1-cyanocyclopropane-1-carboxamido)pyridin-2-yl)-1-methyl-1H-1,2,3-triazol-5-yl)carbamate]: 236 nM. Regarding `C[C@@H](OC(=O)Nc1c(-c2ccc(NC(=O)c3ccnc(S(C)(=O)=O)c3)cn2)nnn1C)c1cc(F)cnc1F` [Compound 273, (R)-1-(2,5-difluoropyridin-3-yl)ethyl (1-methyl-4-(5-(2-(methylsulfonyl)isonicotinamido)pyridin-2-yl)-1H-1,2,3-triazol-5-yl)carbamate], the EC50 worked out at 248 nM.

For the molecule `C[C@@H](OC(=O)Nc1c(-c2cnc(NC(=O)C3(C#N)CC3)cn2)nnn1C)c1cc(F)cnc1F` [Compound 328, (R)-1-(2,5-difluoropyridin-3-yl)ethyl (4-(5-(1-cyanocyclopropane-1-carboxamido)pyrazin-2-yl)-1-methyl-1H-1,2,3-triazol-5-yl)carbamate], the EC50 was determined as 1130 nM. As for `CCOC(=O)Nc1ccc(-c2nnn(C)c2NC(=O)O[C@H](C)c2cccnc2Cl)nc1` [Compound 21, (R)-1-(2-chloropyridin-3-yl)ethyl (4-(5-((ethoxycarbonyl)amino)pyridin-2-yl)-1-methyl-1H-1,2,3-triazol-5-yl)carbamate], the 50% effective concentration (EC50) was found to be 39.6 nM. The same measure for `C[C@@H](OC(=O)Nc1c(-c2ccc(NC(=O)c3cnc(C4CC4)o3)cn2)nnn1C)c1cc(F)cnc1F` [Compound 280, (R)-1-(2,5-difluoropyridin-3-yl)ethyl (4-(5-(2-cyclopropyloxazole-5-carboxamido)pyridin-2-yl)-1-methyl-1H-1,2,3-triazol-5-yl)carbamate]: 98.7 nM; for `C[C@@H]1CCCN1C(=O)Nc1ccc(-c2nnn(C)c2NC(=O)O[C@H](C)c2cccnc2Cl)nc1` [Compound 192, (R)-1-(2-chloropyridin-3-yl)ethyl (1-methyl-4-(5-((R)-2-methylpyrrolidine-1-carboxamido)pyridin-2-yl)-1H-1,2,3-triazol-5-yl)carbamate]: 10000 nM. The same measure for `C[C@@H](OC(=O)Nc1c(-c2ccc(NC(=O)C3(C(F)F)COC3)cn2)nnn1C)c1cc(F)cnc1F` [Compound 214, (R)-1-(2,5-difluoropyridin-3-yl)ethyl (4-(5-(3-(difluoromethyl)oxetane-3-carboxamido)pyridin-2-yl)-1-methyl-1H-1,2,3-triazol-5-yl)carbamate]: 357 nM. The same measure for `C[C@@H](OC(=O)Nc1c(-c2cnc(NC(=O)c3cnc(C(F)(F)F)nc3)cn2)nnn1C)c1cccnc1F` [Compound 325, (R)-1-(2-fluoropyridin-3-yl)ethyl (1-methyl-4-(5-(2-(trifluoromethyl)pyrimidine-5-carboxamido)pyrazin-2-yl)-1H-1,2,3-triazol-5-yl)carbamate]: 185 nM; for `C[C@@H](OC(=O)Nc1c(-c2ccc(NC(=O)c3ccnc(F)c3)cn2)nnn1C)c1cc(F)cnc1F` [Compound 213, (R)-1-(2,5-difluoropyridin-3-yl)ethyl (4-(5-(2-fluoroisonicotinamido)pyridin-2-yl)-1-methyl-1H-1,2,3-triazol-5-yl)carbamate]: 175 nM. For `Cc1cc(C(=O)Nc2ccc(-c3nnn(C)c3NC(=O)O[C@H](C)c3cccnc3Cl)nc2)ccn1` [Compound 102, (R)-1-(2-chloropyridin-3-yl)ethyl (1-methyl-4-(5-(2-methylisonicotinamido)pyridin-2-yl)-1H-1,2,3-triazol-5-yl)carbamate], the concentration giving a half-maximal response (EC50) was found to be 85.6 nM. Under `C[C@@H](OC(=O)Nc1c(-c2ccc(NC(=O)C34CC(F)(C3)C4)cn2)nnn1C)c1cccnc1F` [Compound 173, (R)-1-(2-fluoropyridin-3-yl)ethyl (4-(5-(3-fluorobicyclo[1.1.1]pentane-1-carboxamido)pyridin-2-yl)-1-methyl-1H-1,2,3-triazol-5-yl)carbamate] stands 181 nM.
